Read-outs that look alike come from different tables or passages of the source.
Legend:
[1] = target: recombinant human NF-kappaB-inducing kinase (NIK/MAP3K14) (Homo sapiens, UniProt Q99558); test: Inhibition of auto-phosphorylation of recombinant human NIK/MAP3K14 activity (AlphaScreen); assay type: biochemical; conditions: GST-tagged NIK/MAP3K14 1 nM, 5 μM ATP, 2 h at 25° C.; average of values obtained
Description: Inhibition of Auto-Phosphorylation of Recombinant Human NF-kappaB-Inducing Kinase (NIK/MAP3K14) Activity (AlphaScreen®)
NIK/MAP3K14 auto-phosphorylation activity was measured using the AlphaScreen® (αscreen) format (Perkin Elmer). All compounds tested were dissolved in dimethyl sulfoxide (DMSO) and further dilutions were made in assay buffer. The final DMSO concentration was 0.7% (v/v) in assays. The assay buffer was 50 mM Tris pH 7.5 containing 1 mM EGTA (ethylene glycol tetraacetic acid), 1 mM DTT (dithiothreitol), 0.1 mM Na3VO4, 5 mM MgCl2, and 0.01% Tween® 20. The assays were carried out in 384 well Proxiplates (Perkin Elmer). The incubations consisted of the compound, 5 μM Adenosine-5′-triphosphate (ATP), and 1 nM NIK/MAP3K14. Incubations were initiated by the addition of GST-tagged NIK/MAP3K14 enzyme, carried out for 2 h at 25° C. and terminated by addition of stop buffer containing anti-phospho-IKK Ser176/180 antibody. Protein A Acceptor and Glutathione-Donor beads were added before reading using an EnVision Multilabel Plate Reader (Perkin Elmer). The signal obtained in the wells was normalized using high (full enzyme activity, 0.7% DMSO) and low controls (no enzyme activity, 0.7% DMSO, no ATP). IC50's were determined by fitting a sigmoidal curve to % inhibition of control versus Log10 compound concentration.

[2] = test system: p-IKKα levels in L363 (NIK translocated multiple myeloma) cells; test: Effect of compounds on p-IKKα levels in L363 cells (AlphaLISA SureFire Ultra); assay type: cell-based, human; conditions: Homo sapiens, 10 μM MG132, 6 h, average of values obtained, read-out: Assay 2 IC50
Description: Effect of Compounds on p-IKKα Levels in L363 (NIK Translocated Multiple Myeloma) Cells
All compounds tested were dissolved and serially diluted in DMSO, 1:3 dilution for 11 points in an Echo compatible plate. 100% DMSO was added to columns 12 and 24 of the plate to serve as high and low signal controls. This compound plate was used to spot 20 nL of compound or DMSO into a Greiner 384 well TC plate (781080). The final DMSO concentration was 0.3% (v/v) in cell assays. Human L363 cells (ATCC) were cultured in RPMI1640 medium supplemented with GlutaMax, non-essential amino acids, sodium pyruvate and 10% fetal bovine serum. Cells were routinely maintained at densities of […]-2×10^6 cells per mL at 37° C. in a humidified 5% CO2 atmosphere incubator. Cells were passaged twice a week splitting back to obtain the low density. The day before the assay, cells were washed twice in HBSS (Hank's Balanced Salt Solution), resuspended in Dulbecco's Modified Eagle Medium (DMEM)+0.5% IgG and protease free BSA (Jackson Immuno Research Laboratories), +/−250 ng/ml recombinant human B-cell activating factor (BAFF/BLyS/TNFSF13B) and incubated overnight at 37° C. in a humidified 5% CO2 atmosphere (bulk stimulation with or without BAFF). The next day, the cell concentration was adjusted to 1×10^7 cells/ml in DMEM+/−250 ng/ml BAFF+/10 μM MG132 and plated at […] into compound or DMSO spotted 384 well TC plates. Seeded cells were incubated at 37° C. in a humidified 5% CO2 atmosphere for 6 h. After 6 h, the plates were removed from the incubator and cell lysis was achieved by the addition of 2.5 μl 5×lysis buffer containing protease and phosphatase inhibitors, followed by shaking on a plate shaker at room temperature for 15 min. At the end of this incubation, lysed cells were sequentially treated and incubated with acceptor and donor bead mixes according to the manufacturer's protocol for a 1 plate/2-incubation suspension cell assay (AlphaLISA SureFire Ultra p-IKKa (Ser 176/180) Assay Kit (Perkin Elmer). Plates were read using an EnVision Multilabel Plate Reader (Perkin Elmer). Within an experiment, a concentration response curve for each compound was run in duplicate. The signal obtained in the test wells was normalized using high signal (BAFF stimulated cells, DMSO, MG132) and low signal (unstimulated cells, DMSO) controls. To determine the IC50, a sigmoidal curve was fitted to the plot of % inhibition versus Log10 compound concentration.

[3] = L-363, 6 h, 250 ng/ml BAFF stimulated
[4] = L-363, 250 ng/ml BAFF stimulated

Chain of recombinant human NF-kappaB-inducing kinase (NIK/MAP3K14) (Q99558 whole entry): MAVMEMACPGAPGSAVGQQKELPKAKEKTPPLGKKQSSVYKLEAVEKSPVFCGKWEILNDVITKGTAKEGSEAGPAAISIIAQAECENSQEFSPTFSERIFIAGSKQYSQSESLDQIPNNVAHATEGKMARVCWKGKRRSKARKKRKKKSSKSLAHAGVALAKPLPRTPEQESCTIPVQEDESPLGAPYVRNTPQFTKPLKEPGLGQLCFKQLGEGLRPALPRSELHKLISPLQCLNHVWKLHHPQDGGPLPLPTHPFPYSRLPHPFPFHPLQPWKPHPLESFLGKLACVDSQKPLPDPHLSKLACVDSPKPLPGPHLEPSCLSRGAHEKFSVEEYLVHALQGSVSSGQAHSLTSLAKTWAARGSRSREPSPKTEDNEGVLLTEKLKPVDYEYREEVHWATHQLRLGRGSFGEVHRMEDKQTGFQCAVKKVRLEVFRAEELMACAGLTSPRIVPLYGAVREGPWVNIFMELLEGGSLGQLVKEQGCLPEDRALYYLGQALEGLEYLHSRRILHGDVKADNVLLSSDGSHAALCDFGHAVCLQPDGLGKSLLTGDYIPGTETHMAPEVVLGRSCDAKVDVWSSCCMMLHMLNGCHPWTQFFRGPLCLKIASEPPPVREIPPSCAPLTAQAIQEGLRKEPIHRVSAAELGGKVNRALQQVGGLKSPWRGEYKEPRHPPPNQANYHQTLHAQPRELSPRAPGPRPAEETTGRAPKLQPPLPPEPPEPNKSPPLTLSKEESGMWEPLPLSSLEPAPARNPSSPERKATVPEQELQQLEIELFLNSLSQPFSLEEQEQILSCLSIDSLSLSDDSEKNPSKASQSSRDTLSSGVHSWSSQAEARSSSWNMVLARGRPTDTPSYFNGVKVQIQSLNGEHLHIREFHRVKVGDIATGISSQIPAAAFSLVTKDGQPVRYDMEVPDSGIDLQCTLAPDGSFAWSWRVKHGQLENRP

Row | SMILES | IC50 [1] [nM] | IC50 [2, 3] [nM] | IC50 [2, 4] [nM]
1 | Cc1cnc2c(-c3nc(-c4cccc([C@]5(O)CCn6ccnc65)c4)cs3)c[nH]c2n1 [Example 83, (R)-7-(3-(2-(3-Methyl-5H-pyrrolo[2,3-b]pyrazin-7-yl)thiazol-4-yl)phenyl)-6,7-dihydro-5H-pyrrolo[1,2-a]imidazol-7-ol] | ≤ 100 | 100 to 500 | –
2 | C[C@@](O)(c1cccc(-c2csc(-c3c[nH]c4ncccc34)n2)c1)c1ccccn1 (single isomer, unassigned) [Example 60] | > 500 | > 500 | –
3 | CN1CC[C@@](O)(c2cccc(-c3csc(-c4c[nH]c5ncccc45)n3)c2)C1=O (single isomer, unassigned) [Example 47] | ≤ 100 | – | 100 to 500
4 | O[C@H]1C[C@@](O)(c2cccc(-c3csc(-c4c[nH]c5ncccc45)n3)c2)c2ncccc21 (single isomer, unassigned) [Example 103] | > 500 | > 500 | –
5 | O[C@@]1(c2cccc(-c3csc(-c4n[nH]c5ncccc45)n3)c2)CCn2ccnc21 [Example 75, (R)-7-(3-(2-(1H-Pyrazolo[3,4-b]pyridin-3-yl)thiazol-4-yl)phenyl)-6,7-dihydro-5H-pyrrolo[1,2-a]imidazol-7-ol] | 100 to 500 | > 500 | –
6 | Cc1cc(-c2csc(-c3c[nH]c4nccnc34)n2)cc([C@]2(O)CCN(C)C2=O)c1 [Example 68, (R)-3-(3-(2-(5H-Pyrrolo[2,3-b]pyrazin-7-yl)thiazol-4-yl)-5-methylphenyl)-3-hydroxy-1-methylpyrrolidin-2-one] | ≤ 100 | – | > 500
7 | O[C@]1(c2cccc(-c3csc(-c4c[nH]c5ncccc45)n3)c2)C=Cc2cccnc21 (single isomer, unassigned) [Example 34] | > 500 | > 500 | –
8 | O[C@@]1(c2cccc(-c3nc(-c4c[nH]c5ncccc45)cs3)c2)CCc2scnc21 [Example 59, (R)-4-(3-(4-(1H-Pyrrolo[2,3-b]pyridin-3-yl)thiazol-2-yl)phenyl)-5,6-dihydro-4H-cyclopenta[d]thiazol-4-ol] | ≤ 100 | ≤ 100 | –
9 | Cc1sc(-c2c[nH]c3nccnc23)nc1-c1cccc([C@]2(O)CCN(C)C2=O)c1 [Example 66, (R)-3-Hydroxy-1-methyl-3-(3-(5-methyl-2-(5H-pyrrolo[2,3-b]pyrazin-7-yl)thiazol-4-yl)phenyl)pyrrolidin-2-one] | ≤ 100 | – | > 500
10 | CN1CC[C@@](O)(c2cccc(-c3csc(-c4c[nH]c5ncc(C#N)cc45)n3)c2)C1=O [Example 72, (R)-3-(4-(3-(3-Hydroxy-1-methyl-2-oxopyrrolidin-3-yl)phenyl)thiazol-2-yl)-1H-pyrrolo[2,3-b]pyridine-5-carbonitrile] | ≤ 100 | – | > 500
11 | CN1CC[C@@](O)(c2cccc(-c3cc(-c4c[nH]c5ncccc45)nn3C)c2)C1=O [Example 118, (R)-3-Hydroxy-1-methyl-3-(3-(1-methyl-3-(1H-pyrrolo[2,3-b]pyridin-3-yl)-1H-pyrazol-5-yl)phenyl)pyrrolidin-2-one] | 100 to 500 | – | > 500
12 | C[C@@]1(O)C[C@@](O)(c2cccc(-c3csc(-c4c[nH]c5ncccc45)n3)c2)c2ncccc21 [Example 106, (5R,7R)-7-(3-(2-(1H-Pyrrolo[2,3-b]pyridin-3-yl)thiazol-4-yl)phenyl)-5-methyl-6,7-dihydro-5H-cyclopenta[b]pyridine-5,7-diol] | > 500 | > 500 | –
13 | CN1CC[C@@](O)(c2cccc(-c3cnc(-c4c[nH]c5ncccc45)n3C)c2)C1=O [Example 120, (R)-3-hydroxy-1-methyl-3-(3-(1-methyl-2-(1H-pyrrolo[2,3-b]pyridin-3-yl)-1H-imidazol-5-yl)phenyl)pyrrolidin-2-one] | > 500 | – | > 500
14 | Cc1ccc(-c2csc(-c3c[nH]c4nccnc34)n2)cc1[C@]1(O)CCN(C)C1=O [Example 69, (R)-3-(5-(2-(5H-Pyrrolo[2,3-b]pyrazin-7-yl)thiazol-4-yl)-2-methylphenyl)-3-hydroxy-1-methylpyrrolidin-2-one] | 100 to 500 | – | > 500
15 | CN1C(=O)[C@@](O)(c2cccc(-c3csc(-c4c[nH]c5ncccc45)n3)c2)c2ncccc21 [Example 91, (R)-3-(3-(2-(1H-Pyrrolo[2,3-b]pyridin-3-yl)thiazol-4-yl)phenyl)-3-hydroxy-1-methyl-1,3-dihydro-2H-pyrrolo[3,2-b]pyridin-2-one] | > 500 | – | > 500
16 | CN1CC[C@@](O)(c2cccc(-c3nc(-c4cccc5[nH]ncc45)cs3)c2)C1=O [Example 131, (R)-3-(3-(4-(1H-Indazol-4-yl)thiazol-2-yl)phenyl)-3-hydroxy-1-methylpyrrolidin-2-one] | > 500 | – | > 500
17 | O[C@@]1(c2cccc(-c3csc(-c4c[nH]c5ncc(Cl)cc45)n3)c2)CCn2ccnc21 [Example 27, (R)-7-(3-(2-(5-Chloro-1H-pyrrolo[2,3-b]pyridin-3-yl)thiazol-4-yl)phenyl)-6,7-dihydro-5H-pyrrolo[1,2-a]imidazol-7-ol] | ≤ 100 | ≤ 100 | –
18 | CN1CC[C@@](O)(c2cccc(-c3nc(-c4c(F)[nH]c5ncccc45)cs3)c2)C1=O [Example 56, (R)-3-(3-(4-(2-Fluoro-1H-pyrrolo[2,3-b]pyridin-3-yl)thiazol-2-yl)phenyl)-3-hydroxy-1-methylpyrrolidin-2-one] | 100 to 500 | – | > 500
19 | Cc1ccc2c(-c3nc(-c4cccc([C@]5(O)CCN(C)C5=O)c4)cs3)c[nH]c2n1 [Example 73, (R)-3-Hydroxy-1-methyl-3-(3-(2-(6-methyl-1H-pyrrolo[2,3-b]pyridin-3-yl)thiazol-4-yl)phenyl)pyrrolidin-2-one] | ≤ 100 | – | > 500
20 | CC1(C)Cc2cccnc2[C@@]1(O)c1cccc(-c2csc(-c3c[nH]c4ncccc34)n2)c1 (single isomer, unassigned) [Example 35] | > 500 | > 500 | –
21 | O[C@@]1(c2cccc(-c3csc(-c4c[nH]c5nccnc45)n3)c2)CCn2ccnc21 [Example 41, (R)-7-(3-(2-(5H-Pyrrolo[2,3-b]pyrazin-7-yl)thiazol-4-yl)phenyl)-6,7-dihydro-5H-pyrrolo[1,2-a]imidazol-7-ol] | ≤ 100 | ≤ 100 | –
22 | CC1(C)Cc2cccnc2[C@]1(O)c1cccc(-c2csc(-c3c[nH]c4ncccc34)n2)c1 (single isomer, unassigned) [Example 36] | ≤ 100 | > 500 | –
23 | CN1CC[C@@](O)(c2cccc(-c3cc(-c4c[nH]c5ncccc45)co3)c2)C1=O [Example 115, (R)-3-(3-(4-(1H-Pyrrolo[2,3-b]pyridin-3-yl)furan-2-yl)phenyl)-3-hydroxy-1-methylpyrrolidin-2-one] | > 500 | – | > 500
24 | C[C@](O)(c1cccc(-c2csc(-c3c[nH]c4nccnc34)n2)c1)c1ncc[nH]1 (single isomer, unassigned) [Example 78] | > 500 | > 500 | –
25 | O[C@]1(c2cccc(-c3nc(-c4c[nH]c5ncccc45)cs3)c2)CCc2scnc21 [Example 58, (S)-4-(3-(4-(1H-Pyrrolo[2,3-b]pyridin-3-yl)thiazol-2-yl)phenyl)-5,6-dihydro-4H-cyclopenta[d]thiazol-4-ol] | 100 to 500 | > 500 | –

— US20230416256A1, “SMALL MOLECULE INHIBITORS OF NF-kB INDUCING KINASE” (Janssen Pharmaceutica NV, priority 2020, published 2023)
